# Measurements as given in patent US20230295152A1 (SENDA BIOSCIENCES, INC., priority 2019, published 2023).
# Target: T1, AHR (Homo sapiens, UniProt P35869)
# T1 construct: other cell line with a DRE-luciferase reporter stably transfected; endogenous in cells; host or cells: HepG2 AhR-Lucia reporter cells
# T1 sequence (P35869 11-848): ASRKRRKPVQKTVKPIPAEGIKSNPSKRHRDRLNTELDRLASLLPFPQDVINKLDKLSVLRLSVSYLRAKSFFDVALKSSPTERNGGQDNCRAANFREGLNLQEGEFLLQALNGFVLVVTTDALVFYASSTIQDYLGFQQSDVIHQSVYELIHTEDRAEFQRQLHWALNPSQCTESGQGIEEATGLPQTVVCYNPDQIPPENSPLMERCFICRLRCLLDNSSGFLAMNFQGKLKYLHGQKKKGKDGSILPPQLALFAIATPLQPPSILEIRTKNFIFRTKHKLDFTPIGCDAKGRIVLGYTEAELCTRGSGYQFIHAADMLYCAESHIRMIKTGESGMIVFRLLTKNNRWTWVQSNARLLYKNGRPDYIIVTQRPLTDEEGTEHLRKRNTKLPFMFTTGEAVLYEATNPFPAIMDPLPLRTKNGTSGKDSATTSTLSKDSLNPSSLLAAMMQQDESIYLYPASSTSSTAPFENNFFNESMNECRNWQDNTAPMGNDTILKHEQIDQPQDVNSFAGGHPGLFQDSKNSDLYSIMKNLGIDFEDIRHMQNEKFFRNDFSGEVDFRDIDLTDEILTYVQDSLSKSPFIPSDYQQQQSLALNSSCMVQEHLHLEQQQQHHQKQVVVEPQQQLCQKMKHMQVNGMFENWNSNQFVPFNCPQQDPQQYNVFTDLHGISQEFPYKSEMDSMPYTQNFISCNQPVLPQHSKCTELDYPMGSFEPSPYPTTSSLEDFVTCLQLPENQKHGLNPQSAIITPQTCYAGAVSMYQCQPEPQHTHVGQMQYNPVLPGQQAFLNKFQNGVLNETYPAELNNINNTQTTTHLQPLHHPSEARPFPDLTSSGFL
# Assay: DRE-Luciferase Reporter Assay, HepG2 AhR-Lucia reporter cells
# Type: cell-based
# Conditions: with AHR activating ligand at EC50, read-out: HepG2-Luc IC50
# Method in brief: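 Antagonism read as inhibition of agonist-driven secreted luciferase in stably DRE-reporter-transfected cells such as HepG2 AhR-Lucia. Agonist ligand at EC50 concentration added 1 hr post-plating alongside antagonist (log series, top 100 uM); supernatant read at 24 or 48 h, IC50 derived against agonist-only maximum.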
row,Compound,IC50 [nM]
1,C[C@@H](CO)n1cnc2c(-c3cnn(C)c3)nc(-c3ccc(OC(F)(F)F)cc3)cc2c1=O [Compound 25],< 100
2,C[C@@H](CO)n1cnc2c(-c3cnsc3)nc(-c3ccc(Cl)cc3)cc2c1=O [Compound 58],< 100
3,"Cn1cc(-c2nc(-c3ccc(C(F)(F)F)cn3)cc3c(=O)n([C@H]4COC[C@H]4O)cnc23)cn1 [Compound 151, 3-((3S,4S)-4-hydroxytetrahydrofuran-3-yl)-8-(1-methyl-1H-pyrazol-4-yl)-6-(5-(trifluoromethyl)pyridin-2-yl)pyrido[3,4-d]pyrimidin-4(3H)-one]",< 100
4,"C[C@H](O)Cn1cnc2c(-c3cnn(C)c3)nc(-c3ccc(C(F)(F)F)cn3)cc2c1=O [Compound 142, (S)-3-(2-hydroxypropyl)-8-(1-methyl-1H-pyrazol-4-yl)-6-(5-(trifluoromethyl)pyridin-2-yl)pyrido[3,4-d]pyrimidin-4(3H)-one]",< 100
5,C[C@@H](CO)n1cnc2c(-c3cccnc3)nc(-c3cnc(C4CC4)s3)cc2c1=O [Compound 66],< 100
6,"O=c1c2cc(-c3ccc(C(F)(F)F)cn3)nc(-c3cccnc3)c2ncn1C[C@@H](O)C(F)(F)F [Compound 154, (R)-8-(pyridin-3-yl)-3-(3,3,3-trifluoro-2-hydroxypropyl)-6-(5-(trifluoromethyl)pyridin-2-yl)pyrido[3,4-d]pyrimidin-4(3H)-one]",< 100
7,O=c1c2cc(-c3ccc(C(F)(F)F)nc3)nc(-c3cccnc3)c2ncn1[C@H]1COC[C@@H]1O [Compound 117],< 100
8,C[C@@H](CO)n1cnc2c(-c3cccnc3)nc(-c3ccc(OC(F)(F)F)nc3)cc2c1=O [Compound 50],< 100
9,C[C@@H](CO)n1cnc2c(-c3cccnc3)nc(-c3cnc(C(F)(F)F)s3)cc2c1=O [Compound 85],< 100
10,"C[C@@H](CO)n1cnc2c(-c3cnsc3)nc(-c3ccc(C(F)(F)F)cn3)cc2c1=O [Compound 102, (S)-3-(1-hydroxypropan-2-y1)-8-(isothiazol-4-yl)-6-(5-(trifluoromethyl)pyridin-2-yl)pyrido[3,4-d]pyrimidin-4(3H)-one]",< 100
11,O=c1c2cc(-c3ccc(Cl)cc3)nc(-c3cccnc3)c2ncn1[C@@H]1COC[C@@H]1O (stereo in doubt) [Compound 71],< 100

# Continued, values first:
row,IC50 [nM],Compound
1,< 100,Cn1cc(-c2nc(-c3ccc(C(F)(F)F)nc3)cc3c(=O)n([C@H]4COC[C@H]4O)cnc23)cn1 [Compound 88]
2,< 100,"Cn1cc(-c2nc(-c3ccc(C(F)(F)F)nc3)cc3c(=O)n([C@H]4COC[C@@H]4O)cnc23)cn1 [Compound 114, 3-((3S,4R)-4-hydroxytetrahydrofuran-3-yl)-8-(1-methyl-1H-pyrazol-4-yl)-6-(6-(trifluoromethyl)pyridin-3-yl)pyrido[3,4-d]pyrimidin-4(3H)-one]"
3,< 100,"Cn1cc(-c2nc(-c3ccc(C(F)(F)F)nc3)cc3c(=O)n(C[C@@H](O)C(F)(F)F)cnc23)cn1 [Compound 110, (R)-8-(1-methyl-1H-pyrazol-4-yl)-3-(3,3,3-trifluoro-2-hydroxypropyl)-6-(6-(trifluoromethyl)pyridin-3-yl)pyrido[3,4-d]pyrimidin-4(3H)-one]"
4,< 100,C[C@@H](CO)n1cnc2c(-c3cnn(C)c3)nc(-c3cnc(C(F)(F)F)nc3)cc2c1=O [Compound 95]
5,< 100,O=c1c2cc(-c3ccc(C(F)(F)F)nc3)nc(-c3cccnc3)c2ncn1C[C@H](O)C(F)(F)F [Compound 57]
6,< 100,"O=c1c2cc(-c3ccc(C(F)(F)F)cn3)nc(-c3cccnc3)c2ncn1[C@H]1COC[C@H]1O [Compound 145, 3-((3S,4S)-4-hydroxytetrahydrofuran-3-yl)-8-(pyridin-3-yl)-6-(5-(trifluoromethyl)pyridin-2-yl)pyrido[3,4-d]pyrimidin-4(3H)-one]"
7,< 100,Cn1cc(-c2nc(-c3ccc(C4CC4)nc3)cc3c(=O)n(CC(C)(C)O)cnc23)cn1 [Compound 82]
